Data from PubChem BioAssay (NCI).
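Growth conditions: 96-well plates. Treatment: test compound, 48 hours, 5 concentrations. Analysis: linear interpolation between bracketing concentrations; unreached endpoints set to highest concentration. TGI is the concentration that stops growth completely.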

Assays:
Assay in all cases: NCI tumour cell line growth inhibition, 48 h
NCI/ADR-RES ovarian = tested on: NCI/ADR-RES ovarian
EKVX NSCLC = tested on: EKVX NSCLC
MOLT-4 leukemia = tested on: MOLT-4 leukemia
DMS 114 small cell lung = tested on: DMS 114 small cell lung
LOX IMVI melanoma = tested on: LOX IMVI melanoma
P388/ADR leukemia = tested on: P388/ADR leukemia
NCI-H23 lung = tested on: NCI-H23 lung
OVCAR-4 ovarian = tested on: OVCAR-4 ovarian
COLO 205 colon = tested on: COLO 205 colon
P388 leukemia = tested on: P388 leukemia
SNB-75 CNS = tested on: SNB-75 CNS
CAKI-1 renal = tested on: CAKI-1 renal
DMS 273 small cell lung = tested on: DMS 273 small cell lung
M19-MEL melanoma = tested on: M19-MEL melanoma
SW-620 colon = tested on: SW-620 colon
MALME-3M melanoma = tested on: MALME-3M melanoma
XF 498 CNS = tested on: XF 498 CNS
OVCAR-5 ovarian = tested on: OVCAR-5 ovarian
SF-539 CNS = tested on: SF-539 CNS
KM20L2 colon = tested on: KM20L2 colon
SNB-19 CNS = tested on: SNB-19 CNS
UACC-257 melanoma = tested on: UACC-257 melanoma
SN12K1 renal = tested on: SN12K1 renal
SK-MEL-5 melanoma = tested on: SK-MEL-5 melanoma
SK-MEL-2 melanoma = tested on: SK-MEL-2 melanoma
SK-OV-3 ovarian = tested on: SK-OV-3 ovarian
HT29 colon = tested on: HT29 colon
MCF7 breast = tested on: MCF7 breast
A498 renal = tested on: A498 renal
KM12 colon = tested on: KM12 colon
DLD-1 colon = tested on: DLD-1 colon
K-562 leukemia = tested on: K-562 leukemia
HL-60(TB) leukemia = tested on: HL-60(TB) leukemia
NCI-H522 lung = tested on: NCI-H522 lung
SK-MEL-28 melanoma = tested on: SK-MEL-28 melanoma
A549 NSCLC = tested on: A549 NSCLC
SF-295 CNS = tested on: SF-295 CNS
U251 CNS = tested on: U251 CNS
HCC-2998 colon = tested on: HCC-2998 colon
RPMI-8226 leukemia = tested on: RPMI-8226 leukemia
SN12C renal = tested on: SN12C renal
HOP-92 NSCLC = tested on: HOP-92 NSCLC
CCRF-CEM leukemia = tested on: CCRF-CEM leukemia
RXF 393 renal = tested on: RXF 393 renal
OVCAR-3 ovarian = tested on: OVCAR-3 ovarian
NCI-H226 lung = tested on: NCI-H226 lung
HOP-18 NSCLC = tested on: HOP-18 NSCLC
HOP-62 NSCLC = tested on: HOP-62 NSCLC
UACC-62 melanoma = tested on: UACC-62 melanoma
IGROV1 ovarian = tested on: IGROV1 ovarian
SF-268 CNS = tested on: SF-268 CNS
UO-31 renal = tested on: UO-31 renal
HCT-116 colon = tested on: HCT-116 colon
SNB-78 CNS = tested on: SNB-78 CNS
OVCAR-8 ovarian = tested on: OVCAR-8 ovarian
NCI-H460 lung = tested on: NCI-H460 lung
HCT-15 colon = tested on: HCT-15 colon

COc1cc2c(oc(=O)c3cc(C)cc(OC)c32)c2c(C3OC(C)C(O)C(C)(O)C3O)ccc(O)c12 (configuration not stated)
TGI (NCI/ADR-RES ovarian): 2510 nM
TGI (EKVX NSCLC): 2310 nM
TGI (MOLT-4 leukemia): 875 nM
TGI (DMS 114 small cell lung): 1170 nM
TGI (LOX IMVI melanoma): 1710 nM
TGI (P388/ADR leukemia): 3410 nM
TGI (NCI-H23 lung): 2160 nM
TGI (OVCAR-4 ovarian): 2140 nM
TGI (COLO 205 colon): 1410 nM
TGI (P388 leukemia): 2030 nM
TGI (SNB-75 CNS): 1460 nM
TGI (CAKI-1 renal): 2060 nM
TGI (DMS 273 small cell lung): 1270 nM
TGI (M19-MEL melanoma): 1640 nM
TGI (SW-620 colon): 7740 nM
TGI (MALME-3M melanoma): 1450 nM
TGI (XF 498 CNS): 1150 nM
TGI (OVCAR-5 ovarian): 2890 nM
TGI (SF-539 CNS): 1730 nM
TGI (KM20L2 colon): 5040 nM
TGI (SNB-19 CNS): 4630 nM
TGI (UACC-257 melanoma): 1620 nM
TGI (SN12K1 renal): 1510 nM
TGI (SK-MEL-5 melanoma): 1790 nM
TGI (SK-MEL-2 melanoma): 1560 nM
TGI (SK-OV-3 ovarian): 4450 nM
TGI (HT29 colon): 4810 nM
TGI (MCF7 breast): 3990 nM
TGI (A498 renal): 1290 nM
TGI (KM12 colon): 5410 nM
TGI (DLD-1 colon): 4560 nM
TGI (K-562 leukemia): 3730 nM
TGI (HL-60(TB) leukemia): 251 nM
TGI (NCI-H522 lung): 1730 nM
TGI (SK-MEL-28 melanoma): 1850 nM
TGI (A549 NSCLC): 7400 nM
TGI (SF-295 CNS): 1290 nM
TGI (U251 CNS): 2420 nM
TGI (HCC-2998 colon): 1760 nM
TGI (RPMI-8226 leukemia): 1920 nM
TGI (SN12C renal): 2390 nM
TGI (HOP-92 NSCLC): 4320 nM
TGI (CCRF-CEM leukemia): 2410 nM
TGI (RXF 393 renal): 1180 nM
TGI (OVCAR-3 ovarian): 2510 nM
TGI (NCI-H226 lung): 1210 nM
TGI (HOP-18 NSCLC): 5300 nM
TGI (HOP-62 NSCLC): 1080 nM
TGI (UACC-62 melanoma): 1130 nM
TGI (IGROV1 ovarian): 5590 nM
TGI (SF-268 CNS): 2100 nM
TGI (UO-31 renal): 3190 nM
TGI (HCT-116 colon): 6120 nM
TGI (SNB-78 CNS): 5320 nM
TGI (OVCAR-8 ovarian): 1990 nM
TGI (NCI-H460 lung): 763 nM
TGI (HCT-15 colon): 3650 nM
